Results on 17 molecules are retold here after US9296741B2, “Bromodomain inhibitors” (priority 2012, dated 2016).

As a reminder, the Ki is the equilibrium dissociation constant of an inhibitor or competing ligand from its target. A high value points to lower affinity.

Where two headings read alike, the source gives them in different places.

The nature of data set [1]: Human liver microsome stability assay. It is filed as in vitro ADME. The following applies: human, microsomes, pH 7.4; for half-life at 0.5 μM: both sexes. For orientation: Microsomes from liver hold many membrane-bound enzymes, among them those of drug oxidation.
The subject of data set [2] is breast cancer cell line MX-1. As to the kind of experiment: MX-1 cell line proliferation assay. It counts as cell-based, human. The note with it: MX-1 cells, 3-day proliferation, Cell Titer Glo, read-out: Cellular proliferation: EC50. In general terms: ATP-based viability assays read luminescence as a measure of living cells.
Data set [3] can be described thus: Rat liver microsome stability assay. It is filed as in vitro ADME. The following applies: for half-life at 0.5 μM: 0.25 mg/mL microsomal protein, read-out: Stability in rat liver microsomes (t1/2 in minutes).
Data set [4] deals with human BRD4 first bromodomain (BDI_K57-E168) (Homo sapiens (Human), UniProt O60885). Put plainly: TR-FRET bromodomain binding assay, BRD4 first bromodomain.
Data set [5] addresses human BRD4 second bromodomain (BDII_E352-M457) (Homo sapiens (Human), UniProt O60885). Put plainly: TR-FRET bromodomain binding assay, BRD4 second bromodomain. (In general: Time-resolved FRET reads energy transfer from a long-lived donor to a nearby acceptor.)
A short description of data set [6]: Mouse liver microsome stability assay. The following applies: microsomes, pH 7.4; for half-life at 0.5 μM: male, CD1, mouse. It counts as in vitro ADME.
Where [7] appears, read: rat liver microsomes (male Sprague-Dawley), 0.5 μM test compound, pH 7.4, 37° C.
Where [8] appears, read: rat liver microsomes (male Sprague-Dawley), 0.5 μM test compound, […] microsomal protein, pH 7.4, 37° C.

Turning to `CCS(=O)(=O)Nc1ccc(Oc2cncnc2)c(-c2cn(C)c(=O)c3[nH]ccc23)c1` [Example 141, N-[3-(6-methyl-7-oxo-6,7-dihydro-1H-pyrrolo[2,3-c]pyridin-4-yl)-4-(pyrimidin-5-yloxy)phenyl]ethanesulfonamide], the half-life at 0.5 μM in data set [1] is greater than 120 min; in data set [3] (setting [7]), 110 min; in data set [6] it was 49 min. Also, in data set [2] (Homo sapiens, MX1, 72 h), the EC50 amounted to 125 nM. Further, the Ki in data set [4] worked out at 5.4 nM; in data set [5], 15.2 nM.
With `CC(=O)Nc1ccc(Oc2ccc(F)cc2F)c(-c2cn(C)c(=O)c3[nH]ccc23)c1` [Example 37, N-[4-(2,4-difluorophenoxy)-3-(6-methyl-7-oxo-6,7-dihydro-1H-pyrrolo[2,3-c]pyridin-4-yl)phenyl]acetamide], the figures for the half-life at 0.5 μM in data set [1], in data set [3] (setting [7]) and in data set [6] were 88.9 min, 54 min and 3 min, respectively. Moreover, the EC50 in data set [2] (Homo sapiens, MX1, 72 h) came to 59.3 nM. Besides, the values for the Ki in data set [4] and in data set [5] were 11.3 nM and 10.8 nM, respectively.
Regarding `Cn1cc(-c2cc(S(C)(=O)=O)ccc2Oc2cccc(C(F)(F)F)c2)c2cc[nH]c2c1=O` [Example 157, 6-methyl-4-{5-(methylsulfonyl)-2-[3-(trifluoromethyl)phenoxy]phenyl}-1,6-dihydro-7H-pyrrolo[2,3-c]pyridin-7-one], the half-life at 0.5 μM was 27 min in data set [1], 53 min in data set [3] (setting [7]) and 12 min in data set [6]. For the same molecule, in data set [2] (Homo sapiens, MX1, 72 h), the EC50 was found to be 150 nM. The Ki is 30.8 nM in data set [4] and 21.8 nM in data set [5].
For `CC(C)COc1ccc(S(C)(=O)=O)cc1-c1cn(C)c(=O)c2[nH]ccc12` [Example 221, 6-methyl-4-[2-(2-methylpropoxy)-5-(methylsulfonyl)phenyl]-1,6-dihydro-7H-pyrrolo[2,3-c]pyridin-7-one], the half-life at 0.5 μM in data set [1] came out at 63 min; in data set [3] (setting [7]) it was 24 min; in data set [6], 43 min. Also, the EC50 in data set [2] (Homo sapiens, MX1, 72 h) was found to be 6.1 nM. For the same molecule, the Ki is 6.6 nM in data set [4] and 5 nM in data set [5].
Take `Cn1cc(-c2cc(NS(C)(=O)=O)ccc2OCc2ccccc2)c2cc[nH]c2c1=O` [Example 63, N-[4-(benzyloxy)-3-(6-methyl-7-oxo-6,7-dihydro-1H-pyrrolo[2,3-c]pyridin-4-yl)phenyl]methanesulfonamide]: the half-life at 0.5 μM in data set [1] stood at 39 min; in data set [3] (setting [7]) it was 13 min; in data set [6], 18 min. Also, the EC50 in data set [2] (Homo sapiens, MX1, 72 h) came out at 105 nM. Also, the Ki in data set [4] came out at 18 nM; in data set [5] it was 42.7 nM.
For `CCS(=O)(=O)c1ccc(O[C@H]2CC[C@@](C)(O)CC2)c(-c2cn(C)c(=O)c3[nH]ccc23)c1` [Example 211, 4-{5-(ethylsulfonyl)-2-[(cis-4-hydroxy-4-methylcyclohexyl)oxy]phenyl}-6-methyl-1,6-dihydro-7H-pyrrolo[2,3-c]pyridin-7-one], the “Stability in human liver microsomes (t1/2 in minutes)” value in data set [1] was 65 min. Besides, the EC50 in data set [2] was determined as 11.9 nM. In data set [3] (rat, microsomes, pH 7.4), the “Stability in rat liver microsomes (t1/2 in minutes)” value (“Stability in rat liver microsomes” below) came out at 48 min. In addition, the values for the Ki in data set [4] and in data set [5] were 1.4 nM and 2.1 nM, respectively. Further, the “Stability in mouse liver microsomes (t1/2 in minutes)” value in data set [6] (mouse) came to 63 min.
As for `Cn1cc(-c2cc(S(C)(=O)=O)ccc2Oc2ccc(F)cc2F)c2cc(CNC3CCOC3)[nH]c2c1=O` (stereo not drawn) [Example 284, 4-[2-(2,4-difluorophenoxy)-5-(methylsulfonyl)phenyl]-6-methyl-2-[(tetrahydrofuran-3-ylamino)methyl]-1,6-dihydro-7H-pyrrolo[2,3-c]pyridin-7-one], the values for the half-life at 0.5 μM in data set [1], in data set [3] (setting [7]) and in data set [6] were 12 min, 108 min and greater than 120 min, respectively. The EC50 in data set [2] (Homo sapiens, MX1, 72 h) was determined as 131 nM. Further, the Ki amounted to 18.3 nM in data set [4] and 130 nM in data set [5].
In the case of `CN(c1ccc(Oc2ccccc2)c(-c2cn(C)c(=O)c3[nH]ccc23)c1)S(C)(=O)=O` [Example 8, N-methyl-N-[3-(6-methyl-7-oxo-6,7-dihydro-1H-pyrrolo[2,3-c]pyridin-4-yl)-4-phenoxyphenyl]methanesulfonamide], the values for the half-life at 0.5 μM in data set [1] and in data set [6] were 19 min and 9 min, respectively. Besides, the EC50 in data set [2] (Homo sapiens, MX1, 72 h) came out at 24.4 nM. Further, the “Stability in rat liver microsomes” value in data set [3] (setting [8]) was 1 min. Besides, the Ki in data set [4] came to 2.6 nM; in data set [5] it was 3.9 nM.
Take `CN1CCN(C(=O)c2cc3c(-c4cc(S(C)(=O)=O)ccc4Oc4ccc(F)cc4F)cn(C)c(=O)c3[nH]2)CC1` [Example 256, 4-[2-(2,4-difluorophenoxy)-5-(methylsulfonyl)phenyl]-6-methyl-2-[(4-methylpiperazin-1-yl)carbonyl]-1,6-dihydro-7H-pyrrolo[2,3-c]pyridin-7-one]: the half-life at 0.5 μM in data set [1] is 58 min; in data set [3] (setting [7]), 58 min; in data set [6] it was 71 min. Besides, in data set [2] (Homo sapiens, MX1, 72 h), the EC50 came out at 405 nM. The Ki amounted to 6.1 nM in data set [4] and 84 nM in data set [5].
Take `COc1ccccc1Oc1ccc(S(C)(=O)=O)cc1-c1cn(C)c(=O)c2[nH]ccc12` [Example 178, 4-[2-(2-methoxyphenoxy)-5-(methylsulfonyl)phenyl]-6-methyl-1,6-dihydro-7H-pyrrolo[2,3-c]pyridin-7-one]: the results for the half-life at 0.5 μM in data set [1], in data set [3] (setting [7]) and in data set [6] were 27 min, 7 min and 10 min, respectively. Moreover, in data set [2] (Homo sapiens, MX1, 72 h), the EC50 was found to be 36.2 nM. For the same molecule, the Ki in data set [4] amounted to 10.5 nM; in data set [5], 3.2 nM.
For the molecule `Cn1cc(-c2cc(CO)ccc2Oc2ccccc2)c2cc[nH]c2c1=O` [Example 20, 4-[5-(hydroxymethyl)-2-phenoxyphenyl]-6-methyl-1,6-dihydro-7H-pyrrolo[2,3-c]pyridin-7-one], the values for the half-life at 0.5 μM in data set [1] and in data set [6] were 18 min and 7 min, respectively. The EC50 in data set [2] (Homo sapiens, MX1, 72 h) is 190 nM. Moreover, the “Stability in rat liver microsomes” value in data set [3] (setting [8]) amounted to 1 min. The Ki in data set [4] turned out to be 10.9 nM; in data set [5], 0.68 nM.
Regarding `Cn1cc(-c2cc(S(C)(=O)=O)ccc2Nc2ccc(F)cc2)c2cc[nH]c2c1=O` [Example 332, 4-{2-[(4-fluorophenyl)amino]-5-(methylsulfonyl)phenyl}-6-methyl-1,6-dihydro-7H-pyrrolo[2,3-c]pyridin-7-one], the half-life at 0.5 μM in data set [1] was 65 min; in data set [3] (setting [7]), 70 min; in data set [6], greater than 120 min. Further, the EC50 in data set [2] (Homo sapiens, MX1, 72 h) was 53.1 nM. The inhibitory constant (Ki) in data set [4] came to 30.4 nM; in data set [5] it was 30.6 nM.
In the case of `CCS(=O)(=O)Nc1ccc(OC2CCOCC2)c(-c2cn(C)c(=O)c3[nH]ccc23)c1` [Example 109, N-[3-(6-methyl-7-oxo-6,7-dihydro-1H-pyrrolo[2,3-c]pyridin-4-yl)-4-(tetrahydro-2H-pyran-4-yloxy)phenyl]ethanesulfonamide], the half-life at 0.5 μM in data set [1] is 71 min; in data set [3] (setting [7]), 61 min; in data set [6] it was greater than 120 min. For the same molecule, the EC50 in data set [2] (Homo sapiens, MX1, 72 h) came to 32 nM. Besides, the Ki in data set [4] was found to be 0.72 nM; in data set [5], 3.4 nM.
On to `Cn1cc(-c2cc(S(N)(=O)=O)cnc2NCC2CC2)c2cc[nH]c2c1=O` [Example 209, 6-[(cyclopropylmethyl)amino]-5-(6-methyl-7-oxo-6,7-dihydro-1H-pyrrolo[2,3-c]pyridin-4-yl)pyridine-3-sulfonamide], for which the half-life at 0.5 μM in data set [1] was greater than 120 min; in data set [3] (setting [7]) it was 105 min; in data set [6] it was 116 min. For the same molecule, in data set [2] (Homo sapiens, MX1, 72 h), the EC50 amounted to 36.8 nM. The Ki in data set [4] was 4.6 nM; in data set [5], 3.6 nM.
On to `CCS(=O)(=O)N1CCN(C(=O)c2ccc(Oc3ccc(F)cc3F)c(-c3cn(C)c(=O)c4[nH]ccc34)c2)CC1` [Example 137, 4-[2-(2,4-difluorophenoxy)-5-{[4-(ethylsulfonyl)piperazin-1-yl]carbonyl}phenyl]-6-methyl-1,6-dihydro-7H-pyrrolo[2,3-c]pyridin-7-one], for which the half-life at 0.5 μM in data set [1] is 38 min; in data set [3] (setting [7]), 31 min; in data set [6], 10 min. The EC50 in data set [2] (Homo sapiens, MX1, 72 h) worked out at 303 nM. The Ki in data set [4] turned out to be 68.7 nM; in data set [5] it was 8.9 nM.
For the molecule `Cn1cc(-c2cc(S(C)(=O)=O)ccc2Oc2ccc(F)cc2F)c2cc(C(=O)N3CCOCC3)[nH]c2c1=O` [Example 255, 4-[2-(2,4-difluorophenoxy)-5-(methylsulfonyl)phenyl]-6-methyl-2-(morpholin-4-ylcarbonyl)-1,6-dihydro-7H-pyrrolo[2,3-c]pyridin-7-one], the half-life at 0.5 μM was 70 min in data set [1], greater than 120 min in data set [3] (setting [7]) and greater than 120 min in data set [6]. Also, the EC50 in data set [2] (Homo sapiens, MX1, 72 h) came to 265 nM. Also, the Ki is 10.5 nM in data set [4] and 154 nM in data set [5].
Turning to `Cn1cc(-c2cc(NS(=O)(=O)CCF)ccc2OC2CCOC2)c2cc[nH]c2c1=O` (stereo not drawn) [Example 91, 2-fluoro-N-[3-(6-methyl-7-oxo-6,7-dihydro-1H-pyrrolo[2,3-c]pyridin-4-yl)-4-(tetrahydrofuran-3-yloxy)phenyl]ethanesulfonamide], the half-life at 0.5 μM was 17 min in data set [1], 7 min in data set [3] (setting [7]) and 7 min in data set [6]. Besides, the EC50 in data set [2] (Homo sapiens, MX1, 72 h) is 240 nM. Besides, the Ki in data set [4] was found to be 12.2 nM; in data set [5], 87.4 nM.
